The structures appear in SMILES notation.

The target of test [1] is Recombinant human Cbl-b (aa 36-427) (Homo sapiens, UniProt Q13191). As to the kind of experiment: Cbl-b Biochemical Assay (TR-FRET). The settings on record: read-out: TR-FRET hCbl-b IC50. (In general: Time-resolved FRET reads energy transfer from a long-lived donor to a nearby acceptor.)
Test [2] concerns Jurkat (clone E6-1) cells with NFAT luciferase reporter. As to the kind of experiment: Jurkat reporter assay (NFAT Luciferase). The test is classed as cell-based. Conditions: Homo sapiens; Jurkat NFAT luciferase reporter cells, anti-CD3 stimulation, 6 hr; read-out: Jurkat NFAT EC50. For orientation: In a reporter assay the amount or activity of a reporter protein is the signal.
Test [3] deals with T1, Recombinant human c-Cbl (aa 47-435) (Homo sapiens, UniProt P22681).
T1 sequence (P22681 47-435): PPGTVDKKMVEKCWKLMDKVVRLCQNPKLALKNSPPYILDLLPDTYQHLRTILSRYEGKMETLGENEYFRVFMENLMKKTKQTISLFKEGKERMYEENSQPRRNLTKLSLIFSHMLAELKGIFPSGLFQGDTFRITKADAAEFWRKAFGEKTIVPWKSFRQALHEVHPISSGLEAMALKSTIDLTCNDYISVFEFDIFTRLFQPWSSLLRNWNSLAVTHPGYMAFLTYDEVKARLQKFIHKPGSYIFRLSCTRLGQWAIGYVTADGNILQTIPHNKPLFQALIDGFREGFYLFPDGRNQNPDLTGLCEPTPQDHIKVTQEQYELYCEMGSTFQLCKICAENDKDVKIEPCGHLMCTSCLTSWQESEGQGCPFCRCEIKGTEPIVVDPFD
Put plainly: c-Cbl Biochemical Assay (TR-FRET). The settings on record: hc-Cbl Biochemical Assay (TR-FRET); read-out: TR-FRET hcCbl IC50.

Chain of Recombinant human Cbl-b (aa 36-427) (Q13191 36-427): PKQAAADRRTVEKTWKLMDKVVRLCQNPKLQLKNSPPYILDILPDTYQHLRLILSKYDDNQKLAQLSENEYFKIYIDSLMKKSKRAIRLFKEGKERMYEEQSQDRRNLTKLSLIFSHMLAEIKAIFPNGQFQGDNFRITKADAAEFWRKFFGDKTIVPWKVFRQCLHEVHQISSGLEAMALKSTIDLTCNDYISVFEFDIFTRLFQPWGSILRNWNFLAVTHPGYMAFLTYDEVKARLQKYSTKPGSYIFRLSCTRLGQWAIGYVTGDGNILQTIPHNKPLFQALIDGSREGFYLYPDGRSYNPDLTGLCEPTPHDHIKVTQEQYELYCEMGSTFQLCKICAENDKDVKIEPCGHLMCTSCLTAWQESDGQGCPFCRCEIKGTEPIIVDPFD

With `Cn1cnnc1-c1cc(F)ccc1-c1cccc(-c2nc3cc(NCCC4CCC4)cc(C(F)(F)F)c3o2)c1` [HU-1, N-(2-Cyclobutylethyl)-2-(4′-fluoro-2′-(4-methyl-4H-1,2,4-triazol-3-yl)-[1,1′-biphenyl]-3-yl)-7-(trifluoromethyl)benzo[d]oxazol-5-amine], the IC50 (as a rule, the concentration at which inhibition is half-maximal) in test [1] was 1 to 10 µM. Moreover, in test [2], the EC50 (in general, the concentration that produces a half-maximal response) fell in the range of 10 to 50 µM.

On to `Cn1cnnc1-c1cc(F)ccc1-c1cccc(-c2nc3cc(C(=O)O)cc(C(F)(F)F)c3o2)c1` [DB-1, 2-(4′-Fluoro-2′-(4-methyl-4H-1,2,4-triazol-3-yl)-[1,1′-biphenyl]-3-yl)-7-(trifluoromethyl)benzo[d]oxazole-5-carboxylic Acid], for which the IC50 in test [1] is 10 to 50 µM. In addition, the EC50 in test [2] fell in the range of 1 to 10 µM.

In the case of `Cn1cnnc1CC1(c2cccc(-c3nc4cccc(C(F)(F)F)c4[nH]3)c2)COC1` [ABB-2, 2-(3-(3-((4-Methyl-4H-1,2,4-triazol-3-yl)methyl)oxetan-3-yl)phenyl)-7-(trifluoromethyl)-1H-benzo[d]imidazole], the IC50 in test [1] and in test [3] was 10 to 50 µM each time.

In the case of `C[C@H](Cc1nncn1C)c1cccc(-c2nc3cccc(C(F)(F)F)n3n2)c1` [ACA-2, (R)-2-(3-(1-(4-methyl-4H-1,2,4-triazol-3-yl)propan-2-yl)phenyl)-5-(trifluoromethyl)-[1,2,4]triazolo[1,5-a]pyridine], the IC50 in test [1] and in test [3] was 10 to 50 µM in each case.

Regarding `CN1CC[C@@H](Oc2ccc3nc(-c4cccc(-c5ccccc5-c5nncn5C)c4)[nH]c3c2C(F)(F)F)C1` [BH-3, (R)-2-(2′-(4-Methyl-4H-1,2,4-triazol-3-yl)-[1,1′-biphenyl]-3-yl)-6-((1-methylpyrrolidin-3-yl)oxy)-7-(trifluoromethyl)-1H-benzo[d]imidazole], the half-maximal inhibitory concentration (IC50) in test [1] and in test [3] was 10 to 50 µM throughout.

As to `C[C@H](Cc1nncn1C)c1cccc(-c2nc3cccc(C(F)(F)F)c3[nH]2)c1` [ABD-9, 2-{3-[(2R)-1-(4-Methyl-1,2,4-triazol-3-yl)propan-2-yl]phenyl}-4-(trifluoromethyl)-3H-1,3-benzodiazole], the IC50 in test [1] and in test [3] was 10 to 50 µM throughout.

As to `CCNc1cc(-c2ccccc2-c2nncn2C)cc(-c2nc3cc(CO)cc(C(F)(F)F)c3[nH]2)n1` [AAN-3, {2-[6-(Ethylamino)-4-[2-(4-methyl-1,2,4-triazol-3-yl)phenyl]pyridin-2-yl]-7-(trifluoromethyl)-1H-1,3-benzodiazol-5-yl}methanol], the IC50 in test [1] and in test [3] was 10 to 50 µM each time.

For the compound `Cn1cnnc1-c1cnn(C)c1-c1cccc(-c2nc3cc(CN[C@@H]4CCC[C@H]4O)cc(C(F)(F)F)c3o2)c1` [AAV-2, (1R,2R)-2-(((2-(3-(1-Methyl-4-(4-methyl-4H-1,2,4-triazol-3-yl)-1H-pyrazol-5-yl)phenyl)-7-(trifluoromethyl)benzo[d]oxazol-5-yl)methyl)amino)cyclopentan-1-ol], the half-inhibitory concentration (IC50) is 1 to 10 µM in test [1] and 10 to 50 µM in test [3].

Turning to `CCNc1cc(-c2ccccc2-c2nncn2C)cc(-n2nc3c(C(F)(F)F)cccn3c2=O)n1` [AAO-4, 2-(6-(Ethylamino)-4-(2-(4-methyl-4H-1,2,4-triazol-3-yl)phenyl)pyridin-2-yl)-8-(trifluoromethyl)-[1,2,4]triazolo[4,3-a]pyridin-3(2H)-one], the IC50 in test [1] and in test [3] was 10 to 50 µM throughout.

As to `CC(Cc1nncn1C)c1cccc(-c2nc3ccc(C(=O)N4CCN(C)CC4)c(C(F)(F)F)c3[nH]2)c1` (racemic) [AY-5, (2-(3-(1-(4-Methyl-4H-1,2,4-triazol-3-yl)propan-2-yl)phenyl)-7-(trifluoromethyl)-1H-benzo[d]imidazol-6-yl)(4-methylpiperazin-1-yl)methanone], the concentration for half-maximal inhibition (IC50) in test [1] and in test [3] was 10 to 50 µM in each case.

For the compound `Cn1cnnc1CC1(c2cccc(-c3nc4cc(CN5CCCC5)cc(C(F)(F)F)c4[nH]3)c2)COC1` [ABL-1, 2-(3-(3-((4-Methyl-4H-1,2,4-triazol-3-yl)methyl)oxetan-3-yl)phenyl)-5-(pyrrolidin-1-ylmethyl)-7-(trifluoromethyl)-1H-benzo[d]imidazole], the IC50 in test [1] is 0.2 to 1 µM; in test [3], 10 to 50 µM.

As for `COC(=O)c1ccc2oc(-c3cccc(-c4ccc(Cl)cc4-c4nncn4C)c3)nc2c1` [ADJ-2, Methyl 2-[4′-chloro-2′-(4-methyl-1,2,4-triazol-3-yl)-[1,1′-biphenyl]-3-yl]-1,3-benzoxazole-5-carboxylate], the IC50 in test [1] and in test [3] was 1 to 10 µM throughout.

With `CC(Cc1nncn1C)c1cccc(-c2nc3ccc(OCCN4CCCC4)c(C(F)(F)F)c3[nH]2)c1` (stereo not drawn) [AX-3, 2-(3-(1-(4-Methyl-4H-1,2,4-triazol-3-yl)propan-2-yl)phenyl)-6-(2-(pyrrolidin-1-yl)ethoxy)-7-(trifluoromethyl)-1H-benzo[d]imidazole], the IC50 in test [1] and in test [3] was 10 to 50 µM each time.

Consider `C[C@@H]1CCCN(Cc2cc(C(F)(F)F)c3oc(-c4cccc(-c5ccccc5-c5nncn5C)c4)nc3c2)C1` [Example L-4, (R)-2-(2′-(4-Methyl-4H-1,2,4-triazol-3-yl)-[1,1′-biphenyl]-3-yl)-5-((3-methylpiperidin-1-yl)methyl)-7-(trifluoromethyl)benzo[d]oxazole], for which the half-inhibitory concentration (IC50) in test [1] lay within 1 to 10 µM; in test [3] it was 10 to 50 µM.

Consider `C[C@@H]1CN(Cc2cc(C(F)(F)F)c3oc(-c4cccc(-c5ccccc5-c5nncn5C)c4)nc3c2)CCO1` [Example 0-4, (R)-2-(2′-(4-Methyl-4H-1,2,4-triazol-3-yl)-[1,1′-biphenyl]-3-yl)-5-((2-methylmorpholino)methyl)-7-(trifluoromethyl)benzo[d]oxazole], for which the values for the IC50 in test [1] and in test [3] were 0.2 to 1 µM and 10 to 50 µM, respectively.

With `Cn1cnnc1-c1ccccc1-c1cccc(-c2nc3cccc(C(F)(F)F)n3n2)c1` [ABU-2, 2-(2′-(4-Methyl-4H-1,2,4-triazol-3-yl)-[1,1′-biphenyl]-3-yl)-5-(trifluoromethyl)-[1,2,4]triazolo[1,5-a]pyridine], the IC50 in test [1] and in test [3] was 10 to 50 µM in each case.

On to `CCN(Cc1cc(C(F)(F)F)c2oc(-c3cccc(-c4ccc(F)cc4-c4nncn4C)c3)nc2c1)CC1(C#N)CCCC1` [CO-2, 1-((Ethyl((2-(4′-fluoro-2′-(4-methyl-4H-1,2,4-triazol-3-yl)-[1,1′-biphenyl]-3-yl)-7-(trifluoromethyl)benzo[d]oxazol-5-yl)methyl)amino)methyl)cyclopentane-1-carbonitrile], for which the IC50 was < 0.2 µM in test [1] and 1 to 10 µM in test [3].

Consider `Cn1cnnc1CC1(c2cccc(-c3nc4cc(C(=O)N5CCC6(CC6)C5)cc(C(F)(F)F)c4[nH]3)c2)COC1` [ABJ-2, (2-(3-(3-((4-Methyl-4H-1,2,4-triazol-3-yl)methyl)oxetan-3-yl)phenyl)-7-(trifluoromethyl)-1H-benzo[d]imidazol-5-yl)(5-azaspiro[2.4]heptan-5-yl)methanone], for which the IC50 in test [1] and in test [3] was 10 to 50 µM each time.

As for `Cn1cnnc1-c1cc(F)ccc1-c1cccc(-c2nc3cc(CNCC(C)(C)O)ccc3[nH]2)c1` [BX-2, 1-(((2-(4′-Fluoro-2′-(4-methyl-4H-1,2,4-triazol-3-yl)-[1,1′-biphenyl]-3-yl)-1H-benzo[d]imidazol-5-yl)methyl)amino)-2-methylpropan-2-ol], the IC50 in test [1] was 0.2 to 1 µM; in test [3] it was 10 to 50 µM.

Turning to `Cn1cnnc1-c1cc(F)ccc1-c1cccc(-c2nc3ccccc3o2)c1` [AR-2, 2-(4′-Fluoro-2′-(4-methyl-4H-1,2,4-triazol-3-yl)-[1,1′-biphenyl]-3-yl)benzo[d]oxazole], the IC50 in test [1] and in test [3] was 10 to 50 µM each time.

As for `Cn1cnnc1-c1cc(F)ccc1-c1cccc(-c2nc3cc(CNC4(CO)COC4)cc(C(F)(F)F)c3[nH]2)c1` [BS-1, (3-(((2-(4′-Fluoro-2′-(4-methyl-4H-1,2,4-triazol-3-yl)-[1,1′-biphenyl]-3-yl)-7-(trifluoromethyl)-1H-benzo[d]imidazol-5-yl)methyl)amino)oxetan-3-yl)methanol], the concentration for half-maximal inhibition (IC50) was < 0.2 µM in test [1] and 1 to 10 µM in test [3].

With `Cn1cnnc1-c1cnn(C)c1-c1cc(Cl)nc(-c2cc(C(F)(F)F)c[nH]c2=O)c1` [ACR-3, 6-Chloro-4-(1-methyl-4-(4-methyl-4H-1,2,4-triazol-3-yl)-1H-pyrazol-5-yl)-5′-(trifluoromethyl)-[2,3′-bipyridin]-2′(1′H)-one], the IC50 in test [1] and in test [3] was 10 to 50 µM each time.

Consider `Cn1cnnc1-c1ccccc1-c1cccc(-c2cc(C(F)(F)F)c[nH]c2=O)c1` [ABV-1, 3-(2′-(4-Methyl-4H-1,2,4-triazol-3-yl)-[1,1′-biphenyl]-3-yl)-5-(trifluoromethyl)pyridin-2(1H)-one], for which the IC50 in test [1] and in test [3] was 10 to 50 µM each time.

Regarding `Cn1cnnc1C[C@]1(c2cccc(-c3nc4cccc(C(F)(F)F)c4o3)c2)C[C@H](C#N)C1` [AAT-14, (1r,3r)-3-((4-Methyl-4H-1,2,4-triazol-3-yl)methyl)-3-(3-(7-(trifluoromethyl)benzo[d]oxazol-2-yl)phenyl)cyclobutane-1-carbonitrile], the IC50 in test [1] was 1 to 10 µM; in test [3] it was 10 to 50 µM.
